The target in one test is T1, recEh Trx (Entamoeba histolytica, UniProt C4LYR0).
T1 construct: gene EHI_004490; C-terminal His6 tag, Met1 removed, one disulfide, 12,322 Da; pET17b, E. coli BL21(DE3), Ni-NTA
T1 sequence (C4LYR0 2-103): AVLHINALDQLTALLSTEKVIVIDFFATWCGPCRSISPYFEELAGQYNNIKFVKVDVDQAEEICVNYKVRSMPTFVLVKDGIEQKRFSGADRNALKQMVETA
Briefly: intact-protein LC-ESI-QTOF-MS after expression with drug. As to conditions: covalent; reduced metabolite; drug present during expression in E. coli. The class given is cell-based.

For another test, the target named is T2, recEh TrxR (Entamoeba histolytica, UniProt C4LW95).
T2 construct: gene EHI_155440; C-terminal His6 tag, pET17b, E. coli BL21(DE3), Ni-NTA; C-terminal native peptide 292-314
T2 sequence (C4LW95 1-314): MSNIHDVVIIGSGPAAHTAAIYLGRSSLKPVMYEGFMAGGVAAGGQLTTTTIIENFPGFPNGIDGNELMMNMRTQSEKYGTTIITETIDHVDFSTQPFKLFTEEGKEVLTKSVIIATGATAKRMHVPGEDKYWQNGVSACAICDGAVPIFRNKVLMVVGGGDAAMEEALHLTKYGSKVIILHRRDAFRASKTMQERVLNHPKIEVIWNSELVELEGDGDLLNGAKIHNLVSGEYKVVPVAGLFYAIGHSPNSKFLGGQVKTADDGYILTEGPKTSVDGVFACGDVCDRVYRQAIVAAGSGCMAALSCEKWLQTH
The test is described as above. Format: cell-based. The settings on record: covalent; reduced metabolite; drug present during expression in E. coli.

As for tinidazole [compound 2], the mass increment at recEh Trx and at recEh TrxR was 217 Da in each case.

The values are drawn from publication PMC1933457, “Nitroimidazole Action in Entamoeba histolytica: A Central Role for Thioredoxin Reductase” (PLoS Biology, 2007).
